This passage reports TGI results from PubChem BioAssay (NCI).

Among the test systems are ACHN renal; CAKI-1 renal; K-562 leukemia; KM12 colon; MDA-MB-231 breast; MDA-MB-435; OVCAR-3 ovarian; SF-539 CNS; SK-MEL-28 melanoma; SK-OV-3 ovarian; UACC-62 melanoma; BT-549 breast.
Holding throughout (test): NCI-60 cell line screen, 48 h

Molecules are shown by their SMILES.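 Assay format: 96-well plates, 48-hour exposure. TGI marks complete inhibition of growth.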

Consider `O=C1/C(=C/c2ccc(Cl)cc2)N=C(c2ccccc2)N1C1Nc2cc3c(cc2S1)NC(N1C(=O)/C(=C/c2ccc(Cl)cc2)N=C1c1ccccc1)S3` (stereo not drawn), for which the TGI in the assay with ACHN renal, in the assay on CAKI-1 renal, in the assay with K-562 leukemia, in the assay on KM12 colon, in the assay on MDA-MB-231 breast and with MDA-MB-435 was greater than 100 µM in each case. Moreover, the TGI in the assay with OVCAR-3 ovarian, in the assay with SF-539 CNS, in the assay on SK-MEL-28 melanoma and with SK-OV-3 ovarian was greater than 100 µM each time.
`COc1cc2c(oc(=O)c3cc4ccoc4c(OC)c32)c2cccc(O)c12`: the TGI with ACHN renal, with CAKI-1 renal, in the assay on K-562 leukemia, with KM12 colon, in the assay on OVCAR-3 ovarian and in the assay with SF-539 CNS was greater than 100 µM in each case. Also, the TGI in the assay on SK-MEL-28 melanoma, with SK-OV-3 ovarian and with UACC-62 melanoma was greater than 100 µM each time.
For the compound `Nc1ccc(C(=O)NN2C(=O)C(Cl)C2c2ccc([N+](=O)[O-])cc2)cc1` (stereo not drawn), the TGI stood at 27 µM in the assay with ACHN renal; 36.1 µM with CAKI-1 renal; 36.2 µM in the assay with K-562 leukemia; 23.9 µM in the assay with KM12 colon; 18.4 µM in the assay on OVCAR-3 ovarian; 25.6 µM in the assay on SF-539 CNS. In addition, the TGI in the assay on SK-MEL-28 melanoma amounted to 20.1 µM; with SK-OV-3 ovarian, 29.1 µM; in the assay on UACC-62 melanoma it was 24.7 µM.
For the compound `O/N=C1/CCCCCC1NO` (stereo not drawn), the TGI in the assay on ACHN renal, in the assay on CAKI-1 renal, in the assay with KM12 colon, in the assay on MDA-MB-231 breast, in the assay on MDA-MB-435 and in the assay with OVCAR-3 ovarian was greater than 100 µM in each case. Further, the TGI in the assay on SF-539 CNS, in the assay on SK-MEL-28 melanoma, in the assay with SK-OV-3 ovarian and in the assay with UACC-62 melanoma was greater than 100 µM throughout.
Turning to `CC(C)C(Sc1nc(-c2ccccc2)c(-c2ccccc2)[nH]1)C(=O)N/N=C/c1ccc([N+](=O)[O-])cc1` (stereo not drawn), the TGI with ACHN renal is greater than 100 µM; with CAKI-1 renal it was 47.9 µM; in the assay with KM12 colon it was 24.5 µM; in the assay on OVCAR-3 ovarian, 21.3 µM; in the assay on SF-539 CNS, 36.5 µM; with SK-MEL-28 melanoma, 30.6 µM. For the same compound, the TGI turned out to be 48.2 µM with SK-OV-3 ovarian and 31.5 µM in the assay on UACC-62 melanoma.
With `O=C(Nc1ccccc1)Nn1c(-c2cccs2)nc2ccc(I)cc2c1=O`, the TGI with ACHN renal was greater than 100 µM; in the assay with BT-549 breast, 39 µM; with CAKI-1 renal, 53.3 µM; in the assay with K-562 leukemia, 10.4 µM; in the assay with KM12 colon it was 94.8 µM; with MDA-MB-435 it was 43.3 µM. In addition, the TGI in the assay on OVCAR-3 ovarian was 31.8 µM; with SF-539 CNS, greater than 100 µM; in the assay with SK-MEL-28 melanoma, 53.6 µM; with SK-OV-3 ovarian it was 71.2 µM; in the assay on UACC-62 melanoma it was greater than 100 µM.
For the compound `Cc1nc2c(n1CCC(C)C)C(=O)c1ccccc1C2=O`, the TGI is greater than 100 µM with ACHN renal; 69.1 µM in the assay with K-562 leukemia; greater than 100 µM in the assay on KM12 colon; 71.4 µM in the assay with OVCAR-3 ovarian; 25.4 µM in the assay with SF-539 CNS; 38.8 µM in the assay on SK-MEL-28 melanoma. For the same compound, the TGI was greater than 100 µM in the assay on SK-OV-3 ovarian and 27 µM with UACC-62 melanoma.
On to `C[N+](C)(C)C1(C(=O)[O-])CC1`, for which the TGI in the assay on ACHN renal, in the assay on K-562 leukemia, in the assay with MDA-MB-435, in the assay on OVCAR-3 ovarian, in the assay with SF-539 CNS and with SK-MEL-28 melanoma was greater than 100 µM throughout.
For the compound `COP(=O)(OC)C(O)/C=C/c1ccco1` (stereo not drawn), the TGI in the assay with ACHN renal, in the assay on BT-549 breast, in the assay on CAKI-1 renal, in the assay on K-562 leukemia, in the assay with KM12 colon and in the assay with MDA-MB-435 was greater than 100 µM in each case. Moreover, the TGI in the assay with OVCAR-3 ovarian, in the assay on SK-MEL-28 melanoma, in the assay on SK-OV-3 ovarian and in the assay with UACC-62 melanoma was greater than 100 µM each time.
With `CC(C)[Si](OCC1CC(C[C@H]2CC(C[C@H]3C[C@@H](CO[Si](C(C)C)(C(C)C)C(C)C)OC(C)(C)O3)OC(C)(C)O2)OC(C)(C)O1)(C(C)C)C(C)C` (stereo partly drawn), the TGI in the assay with ACHN renal, in the assay on CAKI-1 renal, in the assay on K-562 leukemia, in the assay with KM12 colon, with OVCAR-3 ovarian and in the assay with SF-539 CNS was greater than 100 µM each time. In addition, the TGI in the assay on SK-MEL-28 melanoma, in the assay with SK-OV-3 ovarian and in the assay with UACC-62 melanoma was greater than 100 µM each time.
Regarding `CC1C2(C)OC(=N)C(C#N)(C(c3ccco3)O2)C1(C#N)C#N` (stereo not drawn), the TGI in the assay on ACHN renal was greater than 100 µM; with BT-549 breast, greater than 100 µM; with CAKI-1 renal, 27.4 µM; with K-562 leukemia, greater than 100 µM; in the assay on KM12 colon, greater than 100 µM; in the assay with MDA-MB-231 breast, 39.5 µM. In addition, the TGI is 47.9 µM in the assay with OVCAR-3 ovarian; 35.9 µM in the assay with SF-539 CNS; 46.2 µM in the assay on SK-MEL-28 melanoma; greater than 100 µM in the assay on SK-OV-3 ovarian; 36.8 µM in the assay with UACC-62 melanoma.
In the case of `NC(CCCNc1cccc(O)c1)C(=O)O` (stereo not drawn), the TGI in the assay on ACHN renal, in the assay on CAKI-1 renal, in the assay with K-562 leukemia, with OVCAR-3 ovarian, with SK-MEL-28 melanoma and with SK-OV-3 ovarian was greater than 100 µM each time. For the same compound, in the assay on UACC-62 melanoma, the TGI was greater than 100 µM.
Consider `O=C1c2ccccc2C(=O)C2C3c4ccccc4C(c4ccccc43)C12` (stereo not drawn), for which the TGI in the assay with ACHN renal was greater than 100 µM; in the assay with K-562 leukemia it was 32.2 µM; in the assay on KM12 colon it was greater than 100 µM; with OVCAR-3 ovarian, 45.8 µM; in the assay on SF-539 CNS, 25.4 µM; in the assay with SK-MEL-28 melanoma, greater than 100 µM. For the same compound, the TGI in the assay with SK-OV-3 ovarian and with UACC-62 melanoma was greater than 100 µM in each case.
`O=C(O)C(Cc1cnc[nH]1)N=Cc1nc(-c2ccccc2)oc1O` (stereo not drawn): the TGI with ACHN renal, in the assay with K-562 leukemia, in the assay with OVCAR-3 ovarian, with SF-539 CNS, in the assay with SK-MEL-28 melanoma and in the assay on SK-OV-3 ovarian was greater than 100 µM throughout. Moreover, the TGI in the assay with UACC-62 melanoma was greater than 100 µM.
